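Briefly, cells in 96-well plates were exposed to five compound concentrations for 48 h, and endpoints were estimated by linear interpolation. GI50 marks 50% less growth. TGI is the concentration that stops growth completely.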
Columns and labels:
Test in all cases: NCI anticancer screen, dose series, 48 h
DMS 114 small cell lung = tested on: DMS 114 small cell lung
DMS 273 small cell lung = tested on: DMS 273 small cell lung
LXFL 529 NSCLC = tested on: LXFL 529 NSCLC
SNB-78 CNS = tested on: SNB-78 CNS
DU-145 prostate = tested on: DU-145 prostate
MCF7 breast = tested on: MCF7 breast
MDA-MB-435 = tested on: MDA-MB-435
NCI/ADR-RES ovarian = tested on: NCI/ADR-RES ovarian
PC-3 prostate = tested on: PC-3 prostate
T-47D breast = tested on: T-47D breast

Row | SMILES | TGI (DMS 114 small cell lung) | TGI (DMS 273 small cell lung) | TGI (LXFL 529 NSCLC) | TGI (SNB-78 CNS) | also measured
1 | CN1CCN(CCSC2Cc3cc(Cl)ccc3Sc3ccccc32)CC1 (centres undefined) | 11.2 µM | 4.28 µM | 7.34 µM | – | –
2 | NC(N)=N/N=C(/c1nc2ccc([N+](=O)[O-])cc2[nH]c1=O)C(O)c1ccco1 (centres undefined) | > 100 µM | > 100 µM | > 100 µM | > 100 µM | –
3 | Nc1ccc(C(=O)N/C(=C\C=C\c2ccco2)c2nc3[nH]c(=S)[nH]c(=O)c3[nH]2)cc1 | – | > 100 µM | > 100 µM | > 100 µM | –
4 | COc1cc(-c2cc(=O)c3cc4c(cc3[nH]2)OCO4)cc(OC)c1OC | > 100 µM | > 100 µM | > 100 µM | > 100 µM | GI50 (DMS 114 small cell lung): 83.8 µM
5 | COC1=CC23C=CC1[C@@H](c1ccccc1)C2=C(C)C(=O)N3C(=O)NC1CCCCC1 (some centres undefined) | – | – | – | 70.1 µM | –
6 | Cc1cc2c(CC(=O)O)[nH]nc2c(C(=O)O)c1C | – | > 100 µM | > 100 µM | > 100 µM | –
7 | Cc1cc2nc3c(=O)n(C)c(=O)nc-3n(-c3ccc(Cl)cc3)c2cc1C | 13.7 µM | 20.6 µM | 27.5 µM | 45.9 µM | –
8 | Cc1cc2nc3c(C(OC4OC(CO)C(O)C(O)C4O)C(O)CO)nn(-c4ccccc4)c3nc2cc1C (centres undefined) | > 100 µM | – | – | > 100 µM | –
9 | CCN(CC)CCCCC1CCN(CC(=O)N2CC(C)C(=O)Nc3ccccc32)CC1 (centres undefined) | > 100 µM | > 100 µM | > 100 µM | – | –
10 | CC1=C2C(O)C(C(C)CO)C(O)CC2(C)C(O)CC1 (centres undefined) | > 100 µM | > 100 µM | > 100 µM | > 100 µM | –
11 | Cc1nc2ccc(C(F)(F)F)cc2nc1Nc1ccc(Cl)c(Cl)c1 | – | 16.1 µM | 20.6 µM | 34.4 µM | –
12 | CCN(CC)CCn1c2c3ccccc3ccc2c2oc(=O)c3ccccc3c21 | > 100 µM | – | > 100 µM | > 100 µM | –
13 | CC1(C)C(=O)N(c2ccccc2)C(=O)N1c1nc2ccccc2[nH]1 | > 100 µM | > 100 µM | > 100 µM | > 100 µM | –
14 | CCCCC#COP(=O)(OCC)OCC | > 100 µM | – | > 100 µM | > 100 µM | –
15 | CCCC(=O)c1c(NOC2OC(COC(C)=O)C(OC(C)=O)C(OC(C)=O)C2OC(C)=O)nc(OC)n(C)c1=O (centres undefined) | > 100 µM | > 100 µM | > 100 µM | > 100 µM | –
16 | CCOc1ccccc1NC(=O)/C=C1\NC(=O)CS1 | > 100 µM | > 100 µM | > 100 µM | > 100 µM | –

Row | SMILES | TGI (DMS 114 small cell lung) | TGI (DMS 273 small cell lung) | TGI (LXFL 529 NSCLC) | TGI (SNB-78 CNS) | also measured
17 | CCN(CC)c1ccc(N=Nc2ccc(-c3nc4cccnc4o3)cc2)cc1 | > 100 µM | > 100 µM | > 100 µM | > 100 µM | –
18 | N#CC(C#N)=C(N)/C(C#N)=C\c1ccnc2ccccc12 | 38.8 µM | 40.5 µM | 54.3 µM | > 100 µM | –
19 | COP1(=O)CC2C(Cl)(Cl)C2(C)C1 (centres undefined) | > 100 µM | > 100 µM | > 100 µM | > 100 µM | –
20 | C[CH2][Sn]1([CH2]C)[O]C(=O)[O][Sn]([CH2]C)([CH2]C)[O]1 | 26.7 µM | > 100 µM | 21.7 µM | 37.4 µM | GI50 (DMS 114 small cell lung): 12.6 µM; GI50 (DMS 273 small cell lung): 59.4 µM; GI50 (LXFL 529 NSCLC): 8.78 µM; GI50 (SNB-78 CNS): 17.1 µM
21 | CC1CC(c2ccccc2)=Nc2ccccc2S1(=O)=O (centres undefined) | 45.8 µM | 38.3 µM | 28.6 µM | 30.8 µM | –
22 | C=CCNC(=S)N1CC(C)C(=O)Nc2ccccc21 (centres undefined) | > 100 µM | > 100 µM | > 100 µM | > 100 µM | –
23 | NC(=O)c1c[se]c(C2OC(CO)C(O)C2O)n1 (centres undefined) | > 100 µM | > 100 µM | > 100 µM | – | TGI (DU-145 prostate): > 100 µM; TGI (MCF7 breast): > 100 µM; TGI (MDA-MB-435): > 100 µM; TGI (NCI/ADR-RES ovarian): > 100 µM; TGI (PC-3 prostate): > 100 µM; TGI (T-47D breast): > 100 µM
24 | Cc1nc(N)sc1C(=O)/C=C/c1ccc(/C=C/C(=O)c2sc(NC(=O)CCCCCCCCC(=O)Nc3nc(C)c(C(=O)/C=C/c4ccc(/C=C/C(=O)c5sc(N)nc5C)cc4)s3)nc2C)cc1 | > 100 µM | > 100 µM | > 100 µM | > 100 µM | –
25 | CC(=O)OCC1OC(n2c(-c3ccccc3)cc(-c3ccco3)c(C#N)c2=O)C(OC(C)=O)C(OC(C)=O)C1OC(C)=O (centres undefined) | > 100 µM | > 100 µM | > 100 µM | > 100 µM | –
26 | COC(=O)c1c(-c2ccccc2)cc2c3cc(-c4ccccc4)c(C(=O)OC)n3c3ccccc3n12 | > 100 µM | > 100 µM | > 100 µM | > 100 µM | –
27 | CCOC(=O)CCC(=O)C1c2cccc(O)c2C(=O)c2c(O)cccc21 | 1.65 µM | 2.73 µM | – | – | –
28 | O=C(C(O)c1cn(Cc2ccccc2)c2ccccc12)N1CCCCC1 (centres undefined) | > 100 µM | > 100 µM | > 100 µM | > 10 µM | –
29 | C=CCCCCCCCCCCCC1CCC(CC)N1 (centres undefined) | 14.7 µM | 5.92 µM | 26 µM | 37.8 µM | –
30 | CCC(=O)c1cn(C)c(=O)c2ccccc12 | > 100 µM | > 100 µM | > 100 µM | > 100 µM | –
31 | N#CCCc1nc2ccc(Br)cc2c(=O)n1CCO | > 100 µM | – | > 100 µM | > 100 µM | –
